Reference: ChEMBL document CHEMBL3286276, “Novel estrogen receptor (ER) modulators containing various hydrophobic bent-core structures” (Bioorg Med Chem, 2014)

Columns and labels:
[1] = target: T1, Estrogen receptor (Homo sapiens) (UniProt P03372); experiment: Agonist activity at estrogen receptor in human MCF7 cells assessed as induction of cell proliferation at 1 x 10^-13 to 1 x 10^-5 M after 5 days by WST-8 assay relative to estradiol; assay type: cell-based
T1 sequence (whole entry): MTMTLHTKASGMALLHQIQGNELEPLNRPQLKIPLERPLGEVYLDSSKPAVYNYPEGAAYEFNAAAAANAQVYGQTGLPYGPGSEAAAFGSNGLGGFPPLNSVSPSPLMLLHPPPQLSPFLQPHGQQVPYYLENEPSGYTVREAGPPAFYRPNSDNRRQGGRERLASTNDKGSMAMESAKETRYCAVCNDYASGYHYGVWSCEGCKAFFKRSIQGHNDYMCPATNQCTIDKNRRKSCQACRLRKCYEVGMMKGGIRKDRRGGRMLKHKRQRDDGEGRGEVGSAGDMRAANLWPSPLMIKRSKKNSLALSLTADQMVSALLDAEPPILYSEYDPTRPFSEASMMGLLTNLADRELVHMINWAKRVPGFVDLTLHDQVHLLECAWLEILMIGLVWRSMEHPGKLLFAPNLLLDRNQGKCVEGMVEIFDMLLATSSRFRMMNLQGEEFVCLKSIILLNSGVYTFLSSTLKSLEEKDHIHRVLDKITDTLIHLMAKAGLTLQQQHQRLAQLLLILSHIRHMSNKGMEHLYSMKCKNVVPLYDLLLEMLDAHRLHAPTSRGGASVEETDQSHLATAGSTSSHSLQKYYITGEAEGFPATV

[2] = target: T1, Estrogen receptor (Homo sapiens); experiment: Displacement of [6,7-3H]17beta-estradiol from human recombinant estrogen receptor-alpha after 18 hrs by liquid scintillation counting analysis

Emax [1]: 17%
inhibition [2]: Dose-dependent effect
Structure (SMILES): CN(C)CCOc1ccc(C23CC4CC(CC(c5ccc(O)cc5)(C4)C2)C3)cc1
